Columns and labels:
Experiment in all cases: relative viability (nuclei count vs DMSO), 5 days (fraction); higher = more cells survive
[1] = compound: O=C(Nc1cccc(C(F)(F)F)c1)Nc1cc(S(=O)(=O)NC2CC2)ccc1-c1ccsc1 [AGI-6780] + Cc1nc(Nc2ncc(C(=O)Nc3c(C)cccc3Cl)s2)cc(N2CCN(CCO)CC2)n1 [Dasatinib] (partner 0.075 µM)
Summary of the method: (§1)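 Lung cancer cell lines were seeded in 1536-well plates and dosed by pin tool the next day, with either a single drug or a fixed anchor-drug dose combined with five library-drug doses (not always all listed) spaced in √10 steps. Five days later, one step fixed the cells and stained their nuclei (final 0.05% Triton X-100, 1% formaldehyde, 1 ug/ml Hoechst), and nuclei were counted on 4× images. Relative viability is the nuclei count in treated wells divided by the count in vehicle wells, and each value is the median of duplicate plates.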

[2] = compound: O=C(Nc1cccc(C(F)(F)F)c1)Nc1cc(S(=O)(=O)NC2CC2)ccc1-c1ccsc1 [AGI-6780] + CC(C)C[C@H](NC(=O)[C@H](Cc1ccccc1)NC(=O)c1cnccn1)B(O)O [Bortezomib] (partner 0.002 µM)
Summary of the method: as §1

[3] = compound: O=C(Nc1cccc(C(F)(F)F)c1)Nc1cc(S(=O)(=O)NC2CC2)ccc1-c1ccsc1 [AGI-6780] + CC1(C)CCC(c2ccc(Cl)cc2)=C(CN2CCN(c3ccc(C(=O)NS(=O)(=O)c4ccc(N[C@H](CCN5CCOCC5)CSc5ccccc5)c(S(=O)(=O)C(F)(F)F)c4)cc3)CC2)C1 [Navitoclax] (partner 0.5 µM)
Summary of the method: as §1

[4] = compound: O=C(Nc1cccc(C(F)(F)F)c1)Nc1cc(S(=O)(=O)NC2CC2)ccc1-c1ccsc1 [AGI-6780] + CCNC(=O)c1noc(-c2cc(C(C)C)c(O)cc2O)c1-c1ccc(CN2CCOCC2)cc1 [Luminespib] (partner 0.01 µM)
Summary of the method: as §1

Cell Line	relative viability ([1]; first compound 0.08 µM)	relative viability ([1]; first compound 0.253 µM)	relative viability ([1]; first compound 0.8 µM)	relative viability ([1]; first compound 2.53 µM)	relative viability ([1]; first compound 8 µM)	relative viability ([2]; first compound 0.08 µM)	relative viability ([2]; first compound 0.253 µM)	relative viability ([2]; first compound 0.8 µM)	relative viability ([2]; first compound 2.53 µM)	relative viability ([2]; first compound 8 µM)	relative viability ([3]; first compound 0.08 µM)	relative viability ([3]; first compound 0.253 µM)	relative viability ([3]; first compound 0.8 µM)	relative viability ([3]; first compound 2.53 µM)	relative viability ([3]; first compound 8 µM)	relative viability ([4]; first compound 0.08 µM)	relative viability ([4]; first compound 0.253 µM)	relative viability ([4]; first compound 0.8 µM)	relative viability ([4]; first compound 2.53 µM)	relative viability ([4]; first compound 8 µM)
NCI-H1755	0.479	0.502	0.456	0.351	0.422	1.01	0.98	0.967	0.83	1.01	1.04	1.01	0.977	0.961	0.894	0.37	0.49	0.518	0.304	0.42
NCI-H1792		0.859	0.663	0.719	0.728	0.834	0.917	1.01	0.867	0.862	0.377	0.613	0.834	0.629	0.625	0.52	0.354	0.371	0.443	0.366
NCI-H1915	0.358	0.333	0.344	0.249	0.304	1.02	1	0.912	0.955	0.972	0.818	0.781	0.746	0.808	0.738	0.781	0.894	0.879	0.698	0.836
NCI-H1975	0.388	0.345	0.395		0.312	0.337	0.303	0.34	0.331	0.351	1.15	1	1.1	1.02	1.03	0.259	0.184	0.222	0.263	0.161
NCI-H1993	0.661	0.724	0.713	0.485	0.549	1.09	1.13	1.25	0.764	1.12	1.1	0.986	0.903	0.667	1.14	0.747	0.913	0.705	0.642	0.857
NCI-H2009	0.27	0.309	0.258	0.312	0.32	1.03	1.04	0.969	1.07	1.12	1.2	1.12	1.19	1.16	1.16	1.01	1.04	0.994	0.988	0.946
NCI-H2023	0.591	0.624	0.617	0.507	0.529	0.994	1.1	1.09	0.92	1.06	1	1.06	1.02	0.989	0.919	0.877	0.688	0.602	0.553	0.686
NCI-H2085	0.272	0.255	0.276	0.24	0.243	1.04	1.09	1.02	1.08	1.13	1.15	1.07	1.1	1.08	1.2	0.409	0.457	0.482	0.347	0.39
NCI-H2087	0.843	0.866	0.888	0.852	0.838	0.824	0.958	0.77	0.997	0.879	1.08	0.986	0.98	0.982	0.97	0.203	0.141	0.181	0.155	0.175
NCI-H2126	0.632	0.657	0.566	0.381	0.586	1.17	1.07	1.11	1.09	1.09	0.926	0.898	0.839	0.738	0.84	0.984	0.843	0.95	0.9	0.856
NCI-H2228	0.528	0.555	0.468	0.381	0.545	1.11	1.07	0.811	0.896	0.886	0.753	1.04	0.675	0.856	1.08	0.128	0.15	0.148	0.114	0.113
NCI-H2347	0.323	0.342	0.276	0.307	0.317	0.557	0.947	0.858	1.23	1.19	0.7	0.839	0.552	0.605	0.841	0.456	0.659	0.405	0.411	0.403
NCI-H2405	0.217	0.205	0.188	0.194	0.203	0.972	0.978	0.925	0.798	1.01	0.8	0.9	0.725		0.836	0.686	0.718	0.5	0.515	0.65
NCI-H3122	0.86	0.904	0.911	0.669	0.955	1.11	1	1.05	1.05	0.999	1.03	1.03	1.02	1.07	0.977	0.0953	0.0902	0.113	0.0851	0.0997
PC-3 [JPC-3]	0.992	0.974	0.944	0.922	0.923	0.816	0.796	0.753	0.856	0.782	0.898	0.872	0.77	0.752	0.774	0.59	0.71	0.727	0.629	0.67
PC-14	0.233	0.256	0.308	0.276	0.24	0.899	0.71	0.917	0.793	0.934	1.06	0.967	0.849	1.01	0.952	0.228	0.195	0.171	0.118	0.121

— the supplement of paper PMC10307832
